Holding throughout (test): NCI-60 cell line screen, 48 h
Assay [1] deals with TK-10 renal.
Assay [2] concerns KM12 colon.
Assay [3] has as its system HCT-15 colon.
The subject of assay [4] is DU-145 prostate.
Assay [5] deals with A498 renal.
In assay [6] the test system is HOP-62 NSCLC.
The subject of assay [7] is T-47D breast.
In assay [8] the test system is ACHN renal.
The subject of assay [9] is SF-268 CNS.
Assay [10] deals with OVCAR-4 ovarian.

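The compound was tested at five concentrations on cells cultured in 96-well plates, with a 48-hour exposure period. The concentration for 50% growth inhibition is given as GI50. Definition used: TGI = concentration required for complete inhibition of growth.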

`COc1ccc(C2C(C#N)=C(S)N(C3OC(CO)C(O)C(O)C3O)C(C)=C2C(C)=O)cc1` (stereo not given): the TGI in assay [1], in assay [2], in assay [3], in assay [4], in assay [5] and in assay [6] was more than 100 µM each time. The TGI in assay [7] is 97.1 µM; in [8] it was more than 100 µM; in [9], more than 100 µM; in assay [10] it was more than 100 µM.

Regarding `OCC1OC(c2ccccc2)CC1O` (stereo not given), the TGI in assay [1], in assay [2], in [3], in assay [4], in assay [5] and in assay [8] was more than 100 µM each time. Also, in assay [10], the TGI is more than 100 µM.

As for `O=c1[nH]c(=O)n(COCc2ccccc2)c2ccccc12`, the TGI in [1], in assay [2], in assay [3], in [4], in [5] and in [8] was more than 100 µM each time. In assay [10], this molecule registered a TGI of more than 100 µM.

As for `O=C(N[C@H]1CCC[C@H]1C(=O)Nc1ccc(C(F)(F)F)cc1)OCc1ccccc1`, the TGI in assay [1], in assay [2], in [3], in [4], in assay [5] and in assay [6] was more than 100 µM throughout. Moreover, the TGI in assay [7], in assay [8], in assay [9] and in [10] was more than 100 µM each time.

Turning to `Cc1cc2oc3c(ccc(=O)n3C)c(=O)c2c(C)c1Cl`, the TGI in assay [1], in assay [2], in [3], in assay [4], in [5] and in [6] was more than 100 µM in each case. Besides, the TGI in [7], in assay [8], in assay [9] and in assay [10] was more than 100 µM in each case.

Regarding `COc1cc(-c2nc3cc(Cl)c(Cl)cc3[nH]2)ccc1OCC(=O)N=Nc1c(O)[nH]c2ccc(Cl)cc12`, the GI50 in assay [1] is 2.53 µM; in assay [3] it was more than 100 µM; in assay [6], 0.455 µM; in [7] it was 0.381 µM; in assay [8], 1.69 µM; in assay [10], 0.403 µM. Further, the TGI in assay [1] was more than 100 µM; in assay [3] it was more than 100 µM; in assay [6], 1.98 µM; in assay [7], 2.37 µM; in assay [8] it was more than 100 µM; in assay [10] it was more than 100 µM.

`C1=CN2C[n+]3ccc4ccccc4c3N=C2c2ccccc21`: the TGI was 43 µM in assay [1]; 10.7 µM in [2]; more than 100 µM in [3]; 25.2 µM in assay [4]; 32.5 µM in assay [6]; 5.29 µM in [7]. The TGI in assay [8] was 70.5 µM; in assay [9], 8.35 µM.

Turning to `O=C1CC(C(COCc2ccccc2)OCc2ccccc2)CC(=O)N1` (stereo not given), the TGI in assay [1], in assay [2], in assay [3], in [4], in assay [6] and in [7] was more than 100 µM throughout. Moreover, the TGI in [8] and in [9] was more than 100 µM throughout.

Consider `CC(=O)N1C(Nc2cccc3nc(C)ccc23)CCN1c1ccccc1` (stereo not given), for which the TGI in assay [1], in [3], in [4], in [6], in assay [7] and in assay [8] was more than 10 µM throughout. In addition, the TGI in [9] and in [10] was more than 10 µM in each case.

With `C[N+]1([O-])[C@H]2CC(OC(=O)[C@H](CO)c3ccccc3)C[C@H]1[C@H]1O[C@H]12` (stereo not given in full), the TGI in assay [1], in assay [2], in assay [3], in [4], in [5] and in assay [6] was more than 100 µM throughout. The TGI in assay [7], in assay [8] and in assay [10] was more than 100 µM each time.

Turning to `CCCCOc1ccc2c(c1)CC[C@@H]1[C@@H]2CC[C@]2(C)C(=O)N(CCCC)C(=O)C[C@@H]12`, the TGI in assay [2], in assay [3], in [4], in assay [5], in assay [6] and in assay [7] was more than 100 µM each time.

For `C[C@]12CC[C@H](O)CC1=CC[C@@H]1[C@@H]2CC[C@]2(C)C(=O)/C(=C/c3ccc([N+](=O)[O-])cc3)C[C@@H]12`, the TGI in assay [2] was more than 100 µM; in [3] it was more than 100 µM; in assay [4] it was 44.9 µM; in [5], 30.4 µM; in assay [6], 17 µM; in assay [7], 61.6 µM. Moreover, the TGI in assay [8] turned out to be 33.4 µM; in [9] it was 21.5 µM; in assay [10], 32.3 µM.

On to `NCCS(=O)(=O)O`, for which the TGI in assay [1], in [2], in assay [3], in assay [4], in assay [6] and in [7] was more than 100 µM throughout. The TGI in [8] and in assay [9] was more than 100 µM in each case.

`O=C(CSCC(=O)N/N=C\c1ccccc1F)N/N=C\c1ccccc1F`: the TGI in assay [1], in assay [2], in [3], in assay [4], in assay [5] and in [7] was more than 100 µM throughout. The TGI in [8], in assay [9] and in assay [10] was more than 100 µM each time.

On to `CC1C(C#N)(C#N)C(C#N)=C(N)C1(C)[N+](=O)[O-]` (stereo not given), for which the TGI in assay [1], in assay [2], in [3], in [4], in assay [5] and in assay [6] was more than 100 µM in each case. Further, the TGI in assay [8], in assay [9] and in [10] was more than 100 µM in each case.

The values above are taken from PubChem BioAssay (NCI).
